From paper PMC11831560, “Development of the Pyrido[2,3-d]pyrimidin-7(8H)-one Scaffold toward Potent and Selective NUAK1 Inhibitors” (ACS Medicinal Chemistry Letters, 2025)
Values joined by “and” are separate entries in the source; they are usually repeats but may differ in a detail not shown here. Equal values may be shown once.

Tests used:
[1] = biological target: T1, NUAK1 (Homo sapiens, UniProt O60285); test: ADP-Glo biochemical assay NUAK1; parameters: purchased MRC PPU; details: ADP-Glo assay; for IC50: read-out: NUAK1 pIC50 (converted)
T1 sequence (O60285 1-661): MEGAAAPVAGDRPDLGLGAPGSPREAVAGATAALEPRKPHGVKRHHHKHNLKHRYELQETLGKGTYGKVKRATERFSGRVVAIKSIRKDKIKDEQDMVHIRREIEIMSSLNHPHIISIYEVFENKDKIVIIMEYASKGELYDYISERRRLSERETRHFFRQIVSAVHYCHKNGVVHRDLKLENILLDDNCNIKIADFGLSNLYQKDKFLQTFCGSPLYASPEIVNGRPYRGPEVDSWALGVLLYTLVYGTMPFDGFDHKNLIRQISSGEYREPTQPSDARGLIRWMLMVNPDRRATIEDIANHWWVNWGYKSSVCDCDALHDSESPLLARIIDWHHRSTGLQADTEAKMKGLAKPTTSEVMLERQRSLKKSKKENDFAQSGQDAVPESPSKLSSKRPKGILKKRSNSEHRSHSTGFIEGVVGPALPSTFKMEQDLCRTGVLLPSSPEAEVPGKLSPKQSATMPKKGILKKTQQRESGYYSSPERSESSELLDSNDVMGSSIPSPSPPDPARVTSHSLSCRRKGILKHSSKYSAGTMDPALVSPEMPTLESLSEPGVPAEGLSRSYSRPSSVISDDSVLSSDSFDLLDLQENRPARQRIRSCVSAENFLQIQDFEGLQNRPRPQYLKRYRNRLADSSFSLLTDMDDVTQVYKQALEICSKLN
Protocol: (§1) Biological experimental procedures
(§2) ADP-Glo biochemical assays
(§3) Protein kinase activity in the presence of inhibitor compounds was determined by ADP-Glo assay (Promega), as previously described.1,2 Compounds were serialised using a Labcyte Echo 520 and transferred to 384 well plates (Greiner 784201) followed by the addition 5 µL of substrate containing peptide and ATP at Km in buffer (see Table S6). 5 µL of purified protein was added and the plate was incubated for 60 minutes at room temperature (ng/well; see Table S6). 3 µL of assay mixture was transferred using an Integra Viaflo384 into a white low volume plate (Greiner 781904) prior to the addition of 3 µL of ADP-Glo Reagent™ for a further 40 minute incubation. After incubation with 6 µL of Kinase Detection Reagent for 30 minutes, plate luminescence was read (Pherastar FSX, BMG […]
(§4) 30 mM HEPES pH7.4, 3 mM MgCl2, 3 mM MnCl2, 1.2 mM DTT, 0.01% CHAPS
(§5) Table S6: Conditions for protein kinase ADP-Glo assays
(§6) ATP AT Peptide Peptide Enzyme Enzyme Assay Buffe Min.
(§7) Protein conc. P Peptide name conc. supplier amount supplier vol. r na […]
(§8) NUAK1 µM µM Sakamototide 50 µM Merck 6.7 ng PPU 10 µl A 6
(§9) A µM µM Sakamototide 100 µM Merck 1 ng PPU 10 µl B 2 […]
(§10) aMin. n: Minimum number of technical replicates per compound

[2] = biological target: T2, MARK3 (Homo sapiens, UniProt P27448); test: ADP-Glo biochemical assay MARK3; details: for MARK3 pIC50 / IC50: ADP-Glo assay; for IC50: read-out: MARK3 pIC50 (converted)
T2 construct: purchased MRC PPU
T2 sequence (P27448 whole entry): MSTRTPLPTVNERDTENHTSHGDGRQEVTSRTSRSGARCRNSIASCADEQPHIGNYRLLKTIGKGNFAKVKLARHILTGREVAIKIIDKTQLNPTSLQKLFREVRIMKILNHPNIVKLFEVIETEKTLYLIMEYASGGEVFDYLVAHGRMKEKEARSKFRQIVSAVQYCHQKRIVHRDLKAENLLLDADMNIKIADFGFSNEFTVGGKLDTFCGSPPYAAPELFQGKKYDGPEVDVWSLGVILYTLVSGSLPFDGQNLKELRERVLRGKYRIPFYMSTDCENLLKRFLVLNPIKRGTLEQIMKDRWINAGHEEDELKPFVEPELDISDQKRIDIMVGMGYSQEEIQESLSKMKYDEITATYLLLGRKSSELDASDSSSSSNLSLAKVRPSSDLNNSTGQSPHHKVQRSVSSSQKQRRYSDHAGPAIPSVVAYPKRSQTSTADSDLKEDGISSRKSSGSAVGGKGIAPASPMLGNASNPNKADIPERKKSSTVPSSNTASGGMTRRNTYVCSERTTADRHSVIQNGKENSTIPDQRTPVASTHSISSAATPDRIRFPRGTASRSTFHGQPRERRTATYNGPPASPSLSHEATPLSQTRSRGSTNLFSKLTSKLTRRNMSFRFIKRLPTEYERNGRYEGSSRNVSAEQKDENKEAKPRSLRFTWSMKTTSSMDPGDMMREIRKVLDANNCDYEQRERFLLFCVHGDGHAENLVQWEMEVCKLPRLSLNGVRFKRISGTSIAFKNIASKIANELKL
Protocol: as §1, §2, §3, §4, §5, §6, §7, §8, §9, §10

[3] = biological target: T3, AMPKA α1β2γ1 (Homo sapiens, UniProt Q13131); test: ADP-Glo biochemical assay AMPKA; details: AMPKA IC50/NUAK1 IC50
T3 construct: purchased MRC PPU
T3 sequence (Q13131 11-559 limits assumed): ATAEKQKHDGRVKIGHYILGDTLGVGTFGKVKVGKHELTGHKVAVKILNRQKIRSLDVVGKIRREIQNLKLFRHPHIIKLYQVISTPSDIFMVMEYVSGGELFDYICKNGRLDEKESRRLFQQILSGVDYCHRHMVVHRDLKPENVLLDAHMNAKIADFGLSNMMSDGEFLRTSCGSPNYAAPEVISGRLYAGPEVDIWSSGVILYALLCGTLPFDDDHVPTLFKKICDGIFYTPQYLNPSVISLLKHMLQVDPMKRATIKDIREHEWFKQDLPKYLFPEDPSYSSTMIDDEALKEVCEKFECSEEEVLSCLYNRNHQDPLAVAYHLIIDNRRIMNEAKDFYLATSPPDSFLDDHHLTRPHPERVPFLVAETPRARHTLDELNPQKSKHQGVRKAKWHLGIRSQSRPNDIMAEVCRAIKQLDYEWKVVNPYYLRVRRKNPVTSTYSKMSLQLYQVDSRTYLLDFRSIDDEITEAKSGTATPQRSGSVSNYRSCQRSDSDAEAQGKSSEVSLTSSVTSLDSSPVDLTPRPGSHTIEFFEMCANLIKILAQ
T3 sequence (O43741 whole entry partner): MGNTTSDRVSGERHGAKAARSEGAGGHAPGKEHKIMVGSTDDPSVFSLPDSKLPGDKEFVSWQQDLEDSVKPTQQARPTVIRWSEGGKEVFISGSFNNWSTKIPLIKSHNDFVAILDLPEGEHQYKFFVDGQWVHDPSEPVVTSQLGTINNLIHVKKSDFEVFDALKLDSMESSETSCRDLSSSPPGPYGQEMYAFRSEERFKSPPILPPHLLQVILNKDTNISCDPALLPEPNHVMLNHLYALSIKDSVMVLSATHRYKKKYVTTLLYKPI
T3 sequence (P54619 whole entry partner): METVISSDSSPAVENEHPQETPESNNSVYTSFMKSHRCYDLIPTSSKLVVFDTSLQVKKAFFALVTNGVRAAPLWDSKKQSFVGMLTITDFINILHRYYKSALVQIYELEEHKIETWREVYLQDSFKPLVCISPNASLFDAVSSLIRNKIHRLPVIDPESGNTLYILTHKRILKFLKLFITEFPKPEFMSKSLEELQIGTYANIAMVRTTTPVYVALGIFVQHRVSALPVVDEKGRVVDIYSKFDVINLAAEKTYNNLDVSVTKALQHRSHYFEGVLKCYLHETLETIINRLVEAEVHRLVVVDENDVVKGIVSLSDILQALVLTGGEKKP
Protocol: as §1, §2, §3, §4, §5, §6, §7, §8, §9, §10

[4] = biological target: T4, AMPKA α1β2γ1 (Homo sapiens, UniProt O43741+P54619+Q13131); test: ADP-Glo biochemical assay AMPKA; details: ADP-Glo assay; read-out: AMPKA pIC50 (converted)
T4 construct: purchased MRC PPU
T4 sequence (Q13131 11-559 limits assumed): as the sequence (Q13131 11-559 limits assumed) above
T4 sequence (O43741 whole entry partner): as the sequence (O43741 whole entry partner) above
T4 sequence (P54619 whole entry partner): as the sequence (P54619 whole entry partner) above
Protocol: as §1, §2, §3, §4, §5, §6, §7, §8, §9, §10

[5] = Microsomal stability, mouse; assay type: in vitro ADME; details: mouse liver microsomes; read-out: MLM t1/2
Protocol: All single point assay determinations carried out in duplicate.
ADMET and PK experimental methods
Microsomal stability: analysis was performed by Cyprotex Discovery. […]

[6] = biological target: T1, NUAK1; test: NanoBRET target engagement assay, HEK293 cells; details: cell-based NanoBRET target engagement assay
Protocol: NanoBRET® target engagement assay
The binding of compounds to NUAK1 in intact cells was assessed using an NanoBRET® TE Intracellular Kinase Assay (Promega N2501). HEK293 cells transiently transfected with NanoLuc®- NUAK1 Fusion Vector (Promega NV1831) were incubated with 10 nL K5 tracer (provided in the kit, Promega N2501) and 40 nL of the test compounds in 100% DMSO in a white low volume non-binding 384 assay plate (Grenier Bio One 784904) for 90 min at 37 °C. After incubation, followed by cooling for 15 min at room temperature, 4 µL of the Intracellular TE Nano-Glo ® Substrate/Inhibitor (Promega N2160) was added to each well. The plate was read using a Pherastar FSX plate reader (BMG Labtech).
Minimum number of 2 technical replicates per compound.
Activity pIC50 values and standard error of the mean (SEM) were estimated using a 4-parameter fit (Dotmatics). The SEM for all reported data was 0.2 or lower. See Experimental Procedures for minimum number of replicates per compound. Each experiment included a Standard compound whose pIC50 value was compared to a quality control chart. If the Standard pIC50 value fell outside the range of pIC50 +/-3 standard deviation, then the experiment was invalidated. […]

[7] = biological target: T5, MARK4 (Homo sapiens, UniProt Q96L34); test: ADP-Glo biochemical assay MARK4
T5 construct: purchased MRC PPU
T5 sequence (Q96L34 1-752): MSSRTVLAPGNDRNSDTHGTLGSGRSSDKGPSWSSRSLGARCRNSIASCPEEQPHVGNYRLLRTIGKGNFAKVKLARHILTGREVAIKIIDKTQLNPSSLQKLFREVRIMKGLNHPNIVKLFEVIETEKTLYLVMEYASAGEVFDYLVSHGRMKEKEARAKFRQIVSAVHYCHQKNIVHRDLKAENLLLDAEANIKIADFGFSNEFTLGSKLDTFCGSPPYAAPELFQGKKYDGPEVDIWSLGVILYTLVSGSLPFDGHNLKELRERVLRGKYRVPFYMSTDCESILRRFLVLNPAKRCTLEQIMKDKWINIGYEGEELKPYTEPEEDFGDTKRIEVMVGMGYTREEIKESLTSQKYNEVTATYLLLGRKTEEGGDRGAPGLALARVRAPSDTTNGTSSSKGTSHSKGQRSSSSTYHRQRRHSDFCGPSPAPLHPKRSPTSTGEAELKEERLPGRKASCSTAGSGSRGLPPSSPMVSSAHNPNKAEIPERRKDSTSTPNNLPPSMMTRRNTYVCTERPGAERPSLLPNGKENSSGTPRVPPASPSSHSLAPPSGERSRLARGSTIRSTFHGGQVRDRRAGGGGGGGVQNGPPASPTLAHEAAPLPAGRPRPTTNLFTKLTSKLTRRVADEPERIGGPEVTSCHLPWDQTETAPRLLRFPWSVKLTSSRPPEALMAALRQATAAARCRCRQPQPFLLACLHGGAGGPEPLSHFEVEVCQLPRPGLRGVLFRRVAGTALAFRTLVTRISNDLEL
Protocol: as §1, §2, §3, §4, §5, §6, §7, §8, §9, §10

[8] = biological target: T6, MARK1 (Homo sapiens, UniProt Q9P0L2); test: ADP-Glo biochemical assay MARK1
T6 construct: purchased MRC PPU
T6 sequence (Q9P0L2 whole entry): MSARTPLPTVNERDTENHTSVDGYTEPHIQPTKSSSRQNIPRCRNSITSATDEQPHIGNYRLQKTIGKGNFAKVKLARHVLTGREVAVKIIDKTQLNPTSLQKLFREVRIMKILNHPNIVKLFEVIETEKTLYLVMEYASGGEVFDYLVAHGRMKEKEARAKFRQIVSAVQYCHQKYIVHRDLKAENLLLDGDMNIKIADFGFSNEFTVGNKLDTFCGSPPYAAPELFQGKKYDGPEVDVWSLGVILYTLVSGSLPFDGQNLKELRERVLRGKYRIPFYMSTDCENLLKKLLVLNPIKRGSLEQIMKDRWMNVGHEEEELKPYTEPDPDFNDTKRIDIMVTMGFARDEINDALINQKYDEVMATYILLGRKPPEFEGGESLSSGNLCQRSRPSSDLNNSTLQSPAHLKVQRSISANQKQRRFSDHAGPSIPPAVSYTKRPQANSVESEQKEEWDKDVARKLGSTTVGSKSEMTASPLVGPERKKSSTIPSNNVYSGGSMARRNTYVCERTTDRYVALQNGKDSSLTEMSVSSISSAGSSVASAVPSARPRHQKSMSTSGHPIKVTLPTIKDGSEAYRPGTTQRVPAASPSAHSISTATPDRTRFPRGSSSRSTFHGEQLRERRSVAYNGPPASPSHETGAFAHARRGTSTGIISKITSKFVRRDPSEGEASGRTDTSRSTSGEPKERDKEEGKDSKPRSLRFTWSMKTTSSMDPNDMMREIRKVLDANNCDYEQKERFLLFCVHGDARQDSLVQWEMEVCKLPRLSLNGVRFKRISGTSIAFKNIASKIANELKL
Protocol: as §1, §2, §3, §4, §5, §6, §7, §8, §9, §10

[9] = biological target: T7, MARK2 (Homo sapiens, UniProt Q7KZI7); test: ADP-Glo biochemical assay MARK2
T7 construct: purchased MRC PPU
T7 sequence (Q7KZI7 whole entry): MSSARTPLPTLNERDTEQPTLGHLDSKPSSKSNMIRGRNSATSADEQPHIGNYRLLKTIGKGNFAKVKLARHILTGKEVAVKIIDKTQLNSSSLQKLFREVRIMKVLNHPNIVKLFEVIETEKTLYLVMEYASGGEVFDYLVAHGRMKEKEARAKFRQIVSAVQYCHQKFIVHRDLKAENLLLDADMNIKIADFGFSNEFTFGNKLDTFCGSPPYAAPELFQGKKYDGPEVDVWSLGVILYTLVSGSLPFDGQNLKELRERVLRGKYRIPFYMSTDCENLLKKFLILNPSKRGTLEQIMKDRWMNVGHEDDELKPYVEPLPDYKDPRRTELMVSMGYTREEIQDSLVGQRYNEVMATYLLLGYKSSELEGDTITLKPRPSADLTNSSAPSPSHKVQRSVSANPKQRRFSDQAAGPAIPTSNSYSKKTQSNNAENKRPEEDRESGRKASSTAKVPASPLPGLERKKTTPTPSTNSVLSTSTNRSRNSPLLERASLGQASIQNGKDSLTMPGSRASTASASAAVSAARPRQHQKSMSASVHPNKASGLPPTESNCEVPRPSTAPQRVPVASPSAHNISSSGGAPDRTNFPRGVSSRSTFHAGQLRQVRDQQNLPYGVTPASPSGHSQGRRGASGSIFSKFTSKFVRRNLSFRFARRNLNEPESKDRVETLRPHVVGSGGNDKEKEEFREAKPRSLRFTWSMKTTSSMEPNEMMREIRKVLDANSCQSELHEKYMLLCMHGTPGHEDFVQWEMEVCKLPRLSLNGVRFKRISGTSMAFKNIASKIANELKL
Protocol: as §1, §2, §3, §4, §5, §6, §7, §8, §9, §10

| SMILES | NUAK1 pIC50 [1] | MARK3 pIC50 [2] | MARK3 Fold selectivity IC50/NUAK1 IC50 [2] [fold] | NUAK1 cell TE pIC50 [6] | other results |
| --- | --- | --- | --- | --- | --- |
| CN1C2CC1CN(c1ccc(Nc3ncc4ccn(CC5CCOC5)c4n3)cc1)C2 (stereo not shown) [Compound 29] | 8.1 | 5.3 | 641 | 6.4 | AMPKA Fold selectivity IC50/NUAK1 IC50 [3]: 708 fold; IC50 [4]: 5.62 µM; half-life at 1 µM [5]: 12.8 min |
| Cc1cc(=O)n(CC(O)CO)c2nc(Nc3ccc(N4CC5CC(C4)N5C)cc3)ncc12 (stereo not shown) [Compound 22] | 7.0 | 5.7 | 20 | – | – |
| COc1cc(Nc2ncc3c(C)cc(=O)n(C4CCCC4)c3n2)cc(OC)c1OC [Compound 15] | 8.21 and 8.2 | 5.8 | 288 | 6.6 | AMPKA Fold selectivity IC50/NUAK1 IC50 [3]: > 12000 fold; IC50 [4]: > 75.9 µM |
| CC(=O)c1c(C)c2cnc(Nc3ccc(N4CCNCC4)cn3)nc2n(C2CCCC2)c1=O [Compound 14, Palbociclib, reference compound] | – | – | – | – | IC50 [1]: 20 µM |
| CN1C2CC1CN(c1ccc(Nc3ncc4ccn(C5CCOC5)c4n3)cc1)C2 (stereo not shown) [Compound 30] | – | – | 388 | – | IC50 [1]: 0.0158 µM; IC50 [2]: 6.31 µM |
| COCCn1c(=O)cc(C)c2cnc(Nc3ccc(N4CC5CC(C4)N5C)cc3)nc21 [Compound 21] | 6.7 | 5.2 | 35 | – | – |
| COc1cc(Nc2ncc3c(n2)N(C2CCCC2)C(=O)C(C)(C)O3)cc(OC)c1OC [Compound 19] | 7.4 | 5.6 | 57 | inactive | half-life at 1 µM [5]: 1.4 min; IC50 ([6]; read-out: NUAK1 cell TE pIC50 (converted)): > 25.1 µM |
| COc1cc(Nc2ncc3cc(C#N)c(=O)n(C4CCCC4)c3n2)cc(OC)c1 [Compound 17] | 7.4 | < 4.6 | > 676 | <4.6 | – |
| CN1C2CC1CN(c1ccc(Nc3ncc4ccn(C5COC5)c4n3)cc1)C2 [Compound 31] | 7.8 | 5.4 | 263 | – | – |
| COc1nn(C)cc1Nc1ncc2c(C)cc(=O)n(C3CCCC3)c2n1 [Compound 18] | 6.5 | 4.9 | 40 | – | – |

Continued, in another order:

| NUAK1 pIC50 [1] | MARK3 pIC50 [2] | MARK3 Fold selectivity IC50/NUAK1 IC50 [2] [fold] | NUAK1 cell TE pIC50 [6] | SMILES | other results |
| --- | --- | --- | --- | --- | --- |
| – | – | – | < 4.3 | Cc1nc(Nc2cnn(C3CCNCC3)c2)nc2c1N(C)C(=O)c1cc3ccccc3cc1N2C [Compound 2, HTH-01-015, reference compound] | – |
| 8.4 | 6.5 | 71 | 6.6 | Cc1cc(=O)n(C2CCCC2)c2nc(Nc3ccc(N4CCN(C(C)C)CC4)cc3)ncc12 [Compound 5] | IC50 [1]: 0.00447 µM; IC50 ([7]; ADP-Glo assay, read-out: MARK4 pIC50 (converted)): 9.12 µM; MARK4 Fold selectivity IC50/NUAK1 IC50 ([7]; MARK4 IC50/NUAK1 IC50): 2042 fold; IC50 ([8]; ADP-Glo assay, read-out: MARK1 pIC50 (converted)): 3.8 µM; MARK1 Fold selectivity IC50/NUAK1 IC50 ([8]; MARK1 IC50/NUAK1 IC50): 851 fold; IC50 ([9]; ADP-Glo assay, read-out: MARK2 pIC50 (converted)): 5.62 µM; MARK2 Fold selectivity IC50/NUAK1 IC50 ([9]; MARK2 IC50/NUAK1 IC50): 1259 fold; AMPKA Fold selectivity IC50/NUAK1 IC50 [3]: 240 fold; IC50 [4]: 1.07 µM; half-life at 0.75 h, 1 µM [5]: 2.2 min |
| 6.6 | < 4.6 | > 89 | – | COc1cc(N2CCN(C)CC2)ccc1Nc1ncc2c(C)cc(=O)n(C3CCCC3)c2n1 [Compound 12] | – |
| – | – | > 11 | – | Cc1cc(=O)n(C2CCCC2)c2nc(Nc3ccc(N4CCNCC4)cn3)ncc12 [Compound 13] | IC50 [1]: 0.316 µM; IC50 [2]: > 3.16 µM |
| 6.8 | 5.9 | 8 | <4.6 | CN1CCN(c2ccc(Nc3ncc4c(n3)N(C3CCCC3)C(=O)C(C)(C)O4)cc2)CC1 [Compound 6] | – |
